# Molecular target: T1, MKNK2 (MNK2) (Homo sapiens, UniProt Q9HBH9)
# T1 construct: purchased Thermo Fisher Scientific (Life Technologies) SelectScreen
# Assay: SelectScreen LanthaScreen
# Format: binding
# Details: read-out: % displacement
# Method in brief: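 NU5455 was profiled across the SelectScreen Broad panel of kinase activity and binding assays. Z'LYTE reactions such as CSF1R ran at apparent Km ATP, while the Adapta CAMK1 assay used ATP listed as 10. Values are given as percent.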
# T1 sequence (Q9HBH9 whole entry): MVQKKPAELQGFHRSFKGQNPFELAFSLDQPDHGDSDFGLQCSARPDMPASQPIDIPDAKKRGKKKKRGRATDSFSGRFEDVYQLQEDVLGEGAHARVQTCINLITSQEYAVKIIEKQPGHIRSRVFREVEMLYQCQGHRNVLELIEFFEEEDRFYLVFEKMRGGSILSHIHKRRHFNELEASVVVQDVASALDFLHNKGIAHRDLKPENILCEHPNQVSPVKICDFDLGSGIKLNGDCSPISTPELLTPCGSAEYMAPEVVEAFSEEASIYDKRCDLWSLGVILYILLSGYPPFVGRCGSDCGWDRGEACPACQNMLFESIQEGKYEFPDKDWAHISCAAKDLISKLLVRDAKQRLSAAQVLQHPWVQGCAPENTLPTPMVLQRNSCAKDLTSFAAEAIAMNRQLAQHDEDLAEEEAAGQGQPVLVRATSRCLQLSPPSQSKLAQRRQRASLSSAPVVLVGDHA
smiles,measurement,value
CN(C(=O)CN1CCOCC1)c1ccc2sc3c(-c4cccc5c(=O)cc(N6CC7CCC(C6)O7)oc45)cccc3c2c1 [NU5455],inhibition at 1 µM,0.2%
